How the values were obtained:
[1] = biological target: T1, ΔF508-CFTR (Homo sapiens, UniProt P13569, DEL508-508); assay: CFTR cell surface levels using HRP-tagged ΔF508-CFTR expressing CFBE cells, in the presence of a co-corrector; assay type: cell-based; conditions: HRP-tagged ΔF508-CFTR CFBE cells, in the presence of 3 μM co-corrector; for EC50: read-out: EC50
T1 construct: host or cells: CFBE41o-, doxycycline-inducible
Procedure, shortened: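 Chemiluminescent read-out of surface HRP (15 min, dark) after PBS washes. Activity is normalized as 100×(sample−DMSO)/(3 μM co-corrector alone−DMSO).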

[2] = biological target: T1, ΔF508-CFTR; assay: CFTR cell surface levels using HRP-tagged ΔF508-CFTR expressing CFBE cells, intrinsic corrector capacity; assay type: cell-based; design: % Activation: concentration or dose not given beside the values; conditions: HRP-tagged ΔF508-CFTR expressing CFBE41o- cells, compound alone (intrinsic corrector capacity), 20 hours at 33° C.; for EC50: read-out: EC50
Procedure, shortened: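 Surface ΔF508-CFTR was measured as HRP chemiluminescence from an extracellular-loop-4 tag, expressed as percent activity between DMSO and a […] corrector control.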

T1 sequence (P13569 with tags, fused parts or gaps DEL508-508): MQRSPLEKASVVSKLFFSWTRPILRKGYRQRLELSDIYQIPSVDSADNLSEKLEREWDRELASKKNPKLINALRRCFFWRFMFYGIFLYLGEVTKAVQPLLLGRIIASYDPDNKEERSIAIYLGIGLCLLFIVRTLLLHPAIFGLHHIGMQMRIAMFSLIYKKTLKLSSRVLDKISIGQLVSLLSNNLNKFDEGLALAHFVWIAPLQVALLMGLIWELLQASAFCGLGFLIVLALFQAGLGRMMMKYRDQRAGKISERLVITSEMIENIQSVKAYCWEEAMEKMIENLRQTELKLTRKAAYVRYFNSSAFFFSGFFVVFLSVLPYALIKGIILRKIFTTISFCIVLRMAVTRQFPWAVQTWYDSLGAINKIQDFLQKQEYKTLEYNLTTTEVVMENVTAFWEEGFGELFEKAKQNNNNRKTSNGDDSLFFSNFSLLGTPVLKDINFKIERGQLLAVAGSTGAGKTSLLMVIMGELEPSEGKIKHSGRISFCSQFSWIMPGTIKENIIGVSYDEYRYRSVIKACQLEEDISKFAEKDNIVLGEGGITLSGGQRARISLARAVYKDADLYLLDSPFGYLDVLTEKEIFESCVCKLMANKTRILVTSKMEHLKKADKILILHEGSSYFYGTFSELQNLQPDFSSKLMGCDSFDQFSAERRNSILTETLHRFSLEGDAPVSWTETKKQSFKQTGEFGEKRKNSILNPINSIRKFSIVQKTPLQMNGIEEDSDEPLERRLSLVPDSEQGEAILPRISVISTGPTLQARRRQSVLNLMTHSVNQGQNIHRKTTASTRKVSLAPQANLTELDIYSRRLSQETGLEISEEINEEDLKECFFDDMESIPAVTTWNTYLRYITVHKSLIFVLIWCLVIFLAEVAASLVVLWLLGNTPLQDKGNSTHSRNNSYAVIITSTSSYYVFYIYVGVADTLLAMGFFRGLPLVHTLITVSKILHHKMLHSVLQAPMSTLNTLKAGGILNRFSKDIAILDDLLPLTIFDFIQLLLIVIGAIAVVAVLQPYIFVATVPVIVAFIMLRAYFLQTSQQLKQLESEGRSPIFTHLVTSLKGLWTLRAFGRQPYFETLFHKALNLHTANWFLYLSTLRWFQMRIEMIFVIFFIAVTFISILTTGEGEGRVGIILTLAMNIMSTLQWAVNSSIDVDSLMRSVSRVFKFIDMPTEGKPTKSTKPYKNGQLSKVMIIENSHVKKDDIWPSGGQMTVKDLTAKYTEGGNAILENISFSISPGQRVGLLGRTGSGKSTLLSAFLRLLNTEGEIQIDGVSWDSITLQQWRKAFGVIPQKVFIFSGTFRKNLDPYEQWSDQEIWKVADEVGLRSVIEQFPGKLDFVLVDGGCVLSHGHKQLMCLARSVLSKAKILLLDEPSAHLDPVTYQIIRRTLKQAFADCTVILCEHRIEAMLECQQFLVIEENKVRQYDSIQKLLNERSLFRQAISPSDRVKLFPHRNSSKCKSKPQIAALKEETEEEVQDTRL

Compound | % Activation [1] | EC50 [1] | % Activation [2] | EC50 [2]
COCC1CCN(c2cc(C(=O)NS(=O)(=O)C3CCNCC3)nc3c2c(C2CCC2)nn3-c2ccccc2)CC1 [Compound 368, 3-cyclobutyl-4-[4-(methoxymethyl)piperidin-1-yl]-1-phenyl-N-(piperidine-4-sulfonyl)-1H-pyrazolo[3,4-b]pyridine-6-carboxamide] | 350.23% | 361 nM | 185% | 1360 nM
COC1CCN(C2CCN(c3cc(C(=O)NS(=O)(=O)N(C)C)nc4c3c(C3CCC3)nn4-c3ccc(F)cc3)CC2)C1 (stereo not drawn) [Compound 524, 3-cyclobutyl-N-(dimethylsulfamoyl)-1-(4-fluorophenyl)-4-[4-(3-methoxypyrrolidin-1-yl)piperidin-1-yl]-1H-pyrazolo[3,4-b]pyridine-6-carboxamide] | 398.75% | 308 nM | 209.35% | 525 nM
CS(=O)(=O)NC(=O)c1cc(-c2ccc(N3CCC(C#N)CC3)nc2)c2c(C3CC(F)C3)nn(-c3ccccc3)c2n1 (stereo not drawn) [Compound 197, 4-[6-(4-cyanopiperidin-1-yl)pyridin-3-yl]-3-(3-fluorocyclobutyl)-N-(methanesulfonyl)-1-phenyl-1H-pyrazolo[3,4-b]pyridine-6-carboxamide] | 390.8% | 194 nM | 220.2% | 397 nM
CC(C)c1nn(C2CCCCC2)c2nc(C(=O)NS(C)(=O)=O)cc(-c3ccc(N(C)C)nc3)c12 [Compound 22, 1-cyclohexyl-4-[6-(dimethylamino)pyridin-3-yl]-N-(methanesulfonyl)-3-(propan-2-yl)-1H-pyrazolo[3,4-b]pyridine-6-carboxamide] | 371.55% | 503 nM | 161.5% | 732 nM
CS(=O)(=O)NC(=O)c1cc(-c2ccc(N3CCC(C#N)CC3)cc2)c2c(C3CCC3)nn(C3CCCCC3)c2n1 [Compound 103, 4-[4-(4-cyanopiperidin-1-yl)phenyl]-3-cyclobutyl-1-cyclohexyl-N-(methanesulfonyl)-1H-pyrazolo[3,4-b]pyridine-6-carboxamide] | 501.03% | 409 nM | 263.8% | 536 nM
COCCS(=O)(=O)NC(=O)c1cc(-c2ccc(N3CCOCC3)cc2)c2c(C)nn(C3CC3)c2n1 [Compound 235, 1-cyclopropyl-N-(2-methoxyethanesulfonyl)-3-methyl-4-[4-(morpholin-4-yl)phenyl]-1H-pyrazolo[3,4-b]pyridine-6-carboxamide] | 257.55% | 2490 nM | 102.76% | 3270 nM
CCCN(CC)S(=O)(=O)NC(=O)c1cc(N2CCC(COC)CC2)c2c(C3CCC3)nn(-c3ccccc3)c2n1 [Compound 392, 3-cyclobutyl-N-[ethyl(propyl)sulfamoyl]-4-[4-(methoxymethyl)piperidin-1-yl]-1-phenyl-1H-pyrazolo[3,4-b]pyridine-6-carboxamide] | 421.4% | 139 nM | 240.05% | 150 nM
COCC1CCN(c2cc(C(=O)NS(=O)(=O)CCCO)nc3c2c(C2CCC2)nn3-c2ccccc2)CC1 [Compound 367, 3-cyclobutyl-N-(3-hydroxypropane-1-sulfonyl)-4-[4-(methoxymethyl)piperidin-1-yl]-1-phenyl-1H-pyrazolo[3,4-b]pyridine-6-carboxamide] | 526.17% | 81.6 nM | 364.5% | 311 nM
CC(C)c1nn(-c2ccc(F)cc2)c2nc(C(=O)NS(C)(=O)=O)cc(N3CCNC(C(F)(F)F)C3)c12 (stereo not drawn) [Compound 339, 1-(4-fluorophenyl)-N-(methanesulfonyl)-3-(propan-2-yl)-4-[3-(trifluoromethyl)piperazin-1-yl]-1H-pyrazolo[3,4-b]pyridine-6-carboxamide] | 295.5% | 402 nM | 142.05% | 1400 nM
CS(=O)(=O)NC(=O)c1cc(CN2CCOCC2)c2c(C3CCC3)nn(-c3ccc(F)cc3)c2n1 [Compound 519, 3-cyclobutyl-1-(4-fluorophenyl)-N-(methanesulfonyl)-4-[(morpholin-4-yl)methyl]-1H-pyrazolo[3,4-b]pyridine-6-carboxamide] | 252.3% | 1020 nM | 114.4% | 3330 nM
O=C(NS(=O)(=O)C1CC1)c1cc(N2CCC(N3CCOCC3)CC2)c2c(C3CCC3)nn(-c3ccc(F)cc3)c2n1 [Compound 507, 3-cyclobutyl-N-(cyclopropanesulfonyl)-1-(4-fluorophenyl)-4-[4-(morpholin-4-yl)piperidin-1-yl]-1H-pyrazolo[3,4-b]pyridine-6-carboxamide] | 580.4% | 95.4 nM | 309.4% | 137 nM
COCC1CCN(c2cc(C(=O)NS(=O)(=O)C3CCNC3)nc3c2c(C2CCC2)nn3-c2ccccc2)CC1 (stereo not drawn) [Compound 387, 3-cyclobutyl-4-[4-(methoxymethyl)piperidin-1-yl]-1-phenyl-N-(pyrrolidine-3-sulfonyl)-1H-pyrazolo[3,4-b]pyridine-6-carboxamide] | 168.9% | 161 nM | 60.58% | 462 nM
CCS(=O)(=O)NC(=O)c1cc(-c2cnc(N(C)C)nc2)c2c(C(C)C)nn(-c3cccc(N(C)C)c3)c2n1 [Compound 78, 1-[3-(dimethylamino)phenyl]-4-[2-(dimethylamino)pyrimidin-5-yl]-N-(ethanesulfonyl)-3-(propan-2-yl)-1H-pyrazolo[3,4-b]pyridine-6-carboxamide] | 520.7% | 660 nM | 333.2% | 1880 nM
CN(c1ccc(-c2cc(C(=O)NS(C)(=O)=O)nc3c2c(C2CCC2)nn3-c2cccc(N3CCCC3)c2)cc1)C1CCOCC1 [Compound 111, 3-cyclobutyl-N-(methanesulfonyl)-4-{4-[methyl(oxan-4-yl)amino]phenyl}-1-[3-(pyrrolidin-1-yl)phenyl]-1H-pyrazolo[3,4-b]pyridine-6-carboxamide] | 596.8% | 378 nM | 411.63% | 444 nM
CC(C)c1nn(-c2cccc(N3CCCC3)c2)c2nc(C(=O)NS(C)(=O)=O)cc(-c3ccc(N4CCOCC4)cc3)c12 [Compound 16, N-(methanesulfonyl)-4-[4-(morpholin-4-yl)phenyl]-3-(propan-2-yl)-1-[3-(pyrrolidin-1-yl)phenyl]-1H-pyrazolo[3,4-b]pyridine-6-carboxamide] | 649.9% | 459 nM | 469.75% | 543 nM
CCOC(=O)N1CCC(c2cc(C(=O)NS(C)(=O)=O)nc3c2c(C(C)C)nn3-c2ccc(F)cc2)CC1 [Compound 496, ethyl 4-[1-(4-fluorophenyl)-6-[(methanesulfonyl)carbamoyl]-3-(propan-2-yl)-1H-pyrazolo[3,4-b]pyridin-4-yl]piperidine-1-carboxylate] | 374.65% | 243 nM | 199.9% | 282 nM
CC(C)c1nn(-c2cccc(C(F)(F)F)c2)c2nc(C(=O)NS(C)(=O)=O)cc(-c3ccc(N4CCC(C#N)CC4)nc3)c12 [Compound 124, 4-[6-(4-cyanopiperidin-1-yl)pyridin-3-yl]-N-(methanesulfonyl)-3-(propan-2-yl)-1-[3-(trifluoromethyl)phenyl]-1H-pyrazolo[3,4-b]pyridine-6-carboxamide] | 447.23% | 312 nM | 288.1% | 545 nM
CC(C)c1nn(-c2cccc(N(C)C)c2)c2nc(C(=O)NS(C)(=O)=O)cc(-c3ccc(N4CCC(C#N)CC4)nc3)c12 [Compound 83, 4-[6-(4-cyanopiperidin-1-yl)pyridin-3-yl]-1-[3-(dimethylamino)phenyl]-N-(methanesulfonyl)-3-(propan-2-yl)-1H-pyrazolo[3,4-b]pyridine-6-carboxamide] | 567.7% | 425 nM | 391.5% | 547 nM
CCS(=O)(=O)NC(=O)c1cc(-c2ccc(N3CCOCC3)cc2)c2c(C3(C)CCC3)nn(-c3ccccc3)c2n1 [Compound 138, N-(ethanesulfonyl)-3-(1-methylcyclobutyl)-4-[4-(morpholin-4-yl)phenyl]-1-phenyl-1H-pyrazolo[3,4-b]pyridine-6-carboxamide] | 433.83% | 236 nM | 252.9% | 334 nM
CC(C)Oc1nn(C2CCCCC2)c2nc(C(=O)NS(C)(=O)=O)cc(-c3ccc(CN4CCC(N(C)C)CC4)cc3)c12 [Compound 643, 1-cyclohexyl-4-(4-{[4-(dimethylamino)piperidin-1-yl]methyl}phenyl)-N-(methanesulfonyl)-3-[(propan-2-yl)oxy]-1H-pyrazolo[3,4-b]pyridine-6-carboxamide] | 445.25% | 497 nM | 181.65% | 506 nM
COCCS(=O)(=O)NC(=O)c1cc(-c2ccc(C(=O)N3CCC(N(C)C)CC3)cc2)c2c(OC(C)C)nn(C3CCCCC3)c2n1 [Compound 545, 1-cyclohexyl-4-{4-[4-(dimethylamino)piperidine-1-carbonyl]phenyl}-N-(2-methoxyethanesulfonyl)-3-[(propan-2-yl)oxy]-1H-pyrazolo[3,4-b]pyridine-6-carboxamide] | 318.7% | 1910 nM | 112.7% | 3330 nM

— patent publication US10259810B2, “N-sulfonylated pyrazolo[3,4-b]pyridin-6-carboxamides and method of use” (AbbVie S.à.r.l., priority 2015, dated 2019)
